Measurements: US9938259B2, “Therapeutic compositions and related methods of use” (Agios Pharmaceuticals, Inc., priority 2009, dated 2018)

Target: PKM2 (Homo sapiens, UniProt P14618)
Experiment: PKM2 Assay
Type: biochemical
Settings: activation of PKM2 enzyme, LDH-coupled, absorbance at 340 nm; read-out: PKM2_AC50
Procedure: • PKM2 stock enzyme solution was diluted in Reaction Buffer • 2 μL of compound was added into each well first, and then 180 μL of the Reaction Mix was added. • Reaction mixture with compound (without ADP) were incubated for 30 minutes at 4° C. • Plates were re-equilibrated to room temperature prior to adding 20 μL ADP to initiate the reaction. • Reaction progress was measured as changes in absorbance at 340 nm wavelength at room temperature (25° C.) • Reaction Mix: PKM2 (50 ng/well), ADP (0.7 mM), PEP (0.15 mM), NADH (180 μM), LDH (2 units) in Reaction Buffer • Reaction Buffer: 100 mM KCl, 50 mM Tris pH 7.5, 5 mM MgCl2, 1 mM DTT, 0.03% BSA.

Sequence of PKM2 (P14618 whole entry): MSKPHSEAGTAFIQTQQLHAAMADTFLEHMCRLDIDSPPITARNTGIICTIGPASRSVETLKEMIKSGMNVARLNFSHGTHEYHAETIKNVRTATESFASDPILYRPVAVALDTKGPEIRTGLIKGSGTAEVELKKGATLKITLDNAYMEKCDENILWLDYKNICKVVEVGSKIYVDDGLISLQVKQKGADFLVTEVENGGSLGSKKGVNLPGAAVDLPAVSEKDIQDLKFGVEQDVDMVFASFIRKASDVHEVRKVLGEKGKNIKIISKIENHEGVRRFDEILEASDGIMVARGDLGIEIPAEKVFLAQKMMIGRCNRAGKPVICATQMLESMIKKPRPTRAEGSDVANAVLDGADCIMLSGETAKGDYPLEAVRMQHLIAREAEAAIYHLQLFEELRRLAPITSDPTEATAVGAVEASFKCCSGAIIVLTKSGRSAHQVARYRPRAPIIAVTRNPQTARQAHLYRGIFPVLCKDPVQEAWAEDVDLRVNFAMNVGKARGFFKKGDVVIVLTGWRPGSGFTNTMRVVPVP

| AC50 | SMILES |
| --- | --- |
| 1000 to 10000 nM | O=S(=O)(Nc1cccc(-c2ccc(C(F)(F)F)cn2)c1)c1cccn1-c1ncc(C(F)(F)F)cc1Cl |
| 1000 to 10000 nM | O=S(=O)(NCc1cccnc1)c1cccn1-c1ncc(C(F)(F)F)cc1Cl |
| 500 to 1000 nM | O=S(=O)(Nc1ccc(Cl)cc1)c1cccn1-c1ccnc(Cl)n1 |
| 100 to 500 nM | N#Cc1cccc(NS(=O)(=O)c2cccn2-c2ncc(C(F)(F)F)cc2Cl)c1 |
| 1000 to 10000 nM | CCCNS(=O)(=O)c1cccn1-c1ncc(C(F)(F)F)cc1Cl |
| 1000 to 10000 nM | O=S(=O)(Nc1cc(Cl)cc(Cl)c1)c1cccn1-c1ncc(C(F)(F)F)cc1Cl |
| 500 to 1000 nM | COc1cc(NS(=O)(=O)c2cccn2-c2ncc(C(F)(F)F)cc2Cl)cc(C(F)(F)F)c1 |
| > 10000 nM | CN(C)S(=O)(=O)c1cccn1-c1ncc(C(F)(F)F)cc1Cl |
| 1000 to 10000 nM | O=S(=O)(Nc1ccccc1C(F)(F)F)c1cccn1-c1ncc(C(F)(F)F)cc1Cl |
| 500 to 1000 nM | CCc1cccc(NS(=O)(=O)c2cccn2-c2ncc(C(F)(F)F)cc2Cl)c1 |
| 1000 to 10000 nM | COC(=O)c1cccc(NS(=O)(=O)c2cccn2-c2ncc(C(F)(F)F)cc2Cl)c1 |
| 100 to 500 nM | COc1cc(NS(=O)(=O)c2cccn2-c2ncc(C(F)(F)F)cc2Cl)cc(OC)c1 |
| 1000 to 10000 nM | O=S(=O)(Nc1ccc(F)cc1)c1cccn1-c1ccc(C(F)(F)F)cn1 |
| > 10000 nM | COCCNS(=O)(=O)c1cccn1-c1ncc(C(F)(F)F)cc1Cl |
| > 10000 nM | O=S(=O)(NCc1ccc(Cl)cc1)c1cccn1-c1ncc(C(F)(F)F)cc1Cl |
| 500 to 1000 nM | O=S(=O)(Nc1cc(F)cc(F)c1)c1cncn1-c1ncc(C(F)(F)F)cc1Cl |
| 1000 to 10000 nM | O=S(=O)(Nc1ccc2ncccc2c1)c1cncn1-c1ncc(C(F)(F)F)cc1Cl |
| 1000 to 10000 nM | COc1ccc(NS(=O)(=O)c2cncn2-c2ncc(C(F)(F)F)cc2Cl)cc1 |
| 100 to 500 nM | Cc1cc(NS(=O)(=O)c2cncn2-c2cnccn2)ccc1F |
| 100 to 500 nM | O=S(=O)(Nc1cccc2ccccc12)c1cncn1-c1ncc(C(F)(F)F)cc1Cl |
| 1000 to 10000 nM | O=S(=O)(Nc1ccc2c(c1)OCCO2)c1cncn1-c1ncc(C(F)(F)F)cc1Cl |
| 1000 to 10000 nM | O=S(=O)(Nc1cc(F)c(F)c(F)c1)c1cncn1-c1ncc(C(F)(F)F)cc1Cl |
| 1000 to 10000 nM | O=S(=O)(Nc1cc(F)cc(F)c1)c1cncn1-c1ncccn1 |
| > 10000 nM | O=S(=O)(Nc1cc(C(F)(F)F)cc(C(F)(F)F)c1)c1cncn1-c1ncc(C(F)(F)F)cc1Cl |
| 1000 to 10000 nM | O=S(=O)(Nc1cc(Cl)cc(Cl)c1)c1cncn1-c1ncc(C(F)(F)F)cc1Cl |
| > 10000 nM | O=S(=O)(Nc1ccc2c(c1)OCCO2)c1cncn1-c1ccc(C(F)(F)F)cn1 |
| 1000 to 10000 nM | O=S(=O)(Nc1cccc2ncccc12)c1cncn1-c1ncc(C(F)(F)F)cc1Cl |

| AC50 | SMILES |
| --- | --- |
| 1000 to 10000 nM | COc1ccc(NS(=O)(=O)c2cncn2-c2ccc(C(F)(F)F)cn2)cc1 |
| 1000 to 10000 nM | O=S(=O)(Nc1ccc(Cl)cc1)c1cncn1-c1ncccn1 |
| 100 to 500 nM | O=S(=O)(Nc1ccc(F)c(Cl)c1)c1cncn1-c1cnccn1 |
| 1000 to 10000 nM | O=S(=O)(Nc1ccc(F)cc1)c1cncn1-c1ccc(C(F)(F)F)cn1 |
| 500 to 1000 nM | COc1cc(NS(=O)(=O)c2cncn2-c2ncc(C(F)(F)F)cc2Cl)cc(OC)c1 |
| 100 to 500 nM | Cc1cc(C)cc(NS(=O)(=O)c2cncn2-c2ccc(C(F)(F)F)cn2)c1 |
| 100 to 500 nM | CCc1cccc(NS(=O)(=O)c2cncn2-c2ncc(C(F)(F)F)cc2Cl)c1 |
| 1000 to 10000 nM | COc1ccc(NS(=O)(=O)c2cnn(-c3ncc(C(F)(F)F)cc3Cl)c2)cc1 |
| 100 to 500 nM | O=S(=O)(Nc1ccc(Cl)cc1)c1cnn(-c2ncc(C(F)(F)F)cc2Cl)c1 |
| > 10000 nM | Cc1cc(C)cc(S(=O)(=O)Nc2ccnn2-c2ncc(C(F)(F)F)cc2Cl)c1 |
| 1000 to 10000 nM | O=S(=O)(Nc1ccc(Cl)cc1)c1cnn(-c2ccc(C(F)(F)F)cn2)c1 |
| > 10000 nM | COc1ccc(NS(=O)(=O)c2cnn(-c3ccc(C(F)(F)F)cn3)c2)cc1 |
| 100 to 500 nM | O=S(=O)(Nc1cc(F)c(F)c(F)c1)c1cccn1-c1ncc(C(F)(F)F)cc1Cl |
| 100 to 500 nM | O=S(=O)(Nc1ccc(F)c(Cl)c1)c1cccn1-c1ncccc1Cl |
| 1000 to 10000 nM | O=S(=O)(Nc1ccc(F)cc1)c1cccn1-c1ncccc1Cl |
| 1000 to 10000 nM | O=S(=O)(Nc1ccc(F)cc1)c1cncn1-c1ncccn1 |
| 500 to 1000 nM | O=S(=O)(Nc1ccc2c(c1)OCO2)c1cncn1-c1ncccn1 |
| 1000 to 10000 nM | O=S(=O)(Nc1ccc(Cl)cc1)c1cncn1-c1ccnc(Cl)n1 |
| 500 to 1000 nM | COc1cc(NS(=O)(=O)c2cccn2-c2ccnc(Cl)n2)cc(C(F)(F)F)c1 |
| 1000 to 10000 nM | O=S(=O)(Nc1cc(F)c(F)c(F)c1)c1cccn1-c1ccnc(Cl)n1 |
| 100 to 500 nM | O=S(=O)(Nc1ccc(F)c(Cl)c1)c1cccn1-c1nccc(Cl)n1 |
| 100 to 500 nM | O=S(=O)(Nc1ccc2c(c1)OCO2)c1cccn1-c1nccc(Cl)n1 |
| 100 to 500 nM | O=S(=O)(Nc1ccc2c(c1)OCO2)c1cncn1-c1cnccn1 |
| 500 to 1000 nM | O=S(=O)(Nc1cc(F)cc(F)c1)c1cccn1-c1ccnc(Cl)n1 |
| 500 to 1000 nM | O=S(=O)(Nc1cccc(C(F)(F)F)c1)c1cccn1-c1ccnc(Cl)n1 |
| < 100 nM | O=S(=O)(Nc1ccc2c(c1)OCO2)c1cccn1-c1ccnc(Cl)n1 |
| < 100 nM | Cc1cc(NS(=O)(=O)c2cccn2-c2ccnc(Cl)n2)ccc1F |

| AC50 | SMILES |
| --- | --- |
| 1000 to 10000 nM | O=S(=O)(Nc1cc(F)cc(F)c1)c1cncn1-c1nccc(Cl)n1 |
| > 10000 nM | O=S(=O)(Nc1cc(F)cc(F)c1)c1cncn1-c1ccnc(Cl)n1 |
| 1000 to 10000 nM | O=S(=O)(Nc1ccc(F)cc1)c1cncn1-c1nccc(Cl)n1 |
| 1000 to 10000 nM | O=S(=O)(Nc1ccc(F)cc1)c1cncn1-c1ccnc(Cl)n1 |
| 1000 to 10000 nM | O=S(=O)(Nc1ccc(Cl)cc1)c1cncn1-c1nccc(Cl)n1 |
| 100 to 500 nM | O=S(=O)(Nc1ccc(F)c(Cl)c1)c1cncn1-c1ccnc(Cl)n1 |
| 500 to 1000 nM | O=S(=O)(Nc1ccc2c(c1)OCO2)c1cncn1-c1ccnc(Cl)n1 |
| 100 to 500 nM | Cc1cccc(NS(=O)(=O)c2cncn2-c2cnccn2)c1 |
| < 100 nM | Cc1cc(C)cc(NS(=O)(=O)c2cncn2-c2cnccn2)c1 |
| 1000 to 10000 nM | O=S(=O)(Nc1ccc(F)c(Cl)c1)c1cncn1-c1nccc(Cl)n1 |
| 100 to 500 nM | Cc1cc(NS(=O)(=O)c2ccnn2-c2cnccn2)ccc1F |
| 100 to 500 nM | O=S(=O)(Nc1cccc(Cl)c1)c1ccnn1-c1ncc(C(F)(F)F)cc1Cl |
| < 100 nM | Cc1cc(NS(=O)(=O)c2ccnn2-c2ncc(C(F)(F)F)cc2Cl)ccc1F |
| 1000 to 10000 nM | O=S(=O)(Nc1cccc(Cl)c1)c1ccnn1-c1nccs1 |
| 1000 to 10000 nM | Cc1cc(NS(=O)(=O)c2ccnn2-c2nccs2)ccc1F |
| 1000 to 10000 nM | O=S(=O)(Nc1ccc(F)c(Cl)c1)c1ccnn1-c1nccs1 |
| > 10000 nM | O=S(=O)(Nc1cccc(Cl)c1)c1ccnn1-c1cccs1 |
| 1000 to 10000 nM | Cc1cc(NS(=O)(=O)c2ccnn2-c2cccs2)ccc1F |
| > 10000 nM | O=S(=O)(Nc1ccc(F)c(Cl)c1)c1ccnn1-c1cccs1 |
| 500 to 1000 nM | O=S(=O)(Nc1ccc(F)c(Cl)c1)c1cncn1-c1nccs1 |
| 1000 to 10000 nM | O=S(=O)(Nc1cccc(Cl)c1)c1cncn1-c1cccs1 |
| 1000 to 10000 nM | Cc1cc(NS(=O)(=O)c2cncn2-c2cccs2)ccc1F |
| 1000 to 10000 nM | O=S(=O)(Nc1ccc(F)c(Cl)c1)c1cncn1-c1cccs1 |
| 500 to 1000 nM | O=S(=O)(Nc1cccc(Cl)c1)c1cncn1-c1nccs1 |
| 100 to 500 nM | Cc1cc(NS(=O)(=O)c2cncn2-c2nccs2)ccc1F |
